{"source": "paper PMC4904246", "about": "(Journal of Medicinal Chemistry, 2016)", "key": {"hERG K+ channel": {"biological_target": "hERG K+ channel (Homo sapiens, UniProt Q12809)", "sequence (Q12809 whole entry)": "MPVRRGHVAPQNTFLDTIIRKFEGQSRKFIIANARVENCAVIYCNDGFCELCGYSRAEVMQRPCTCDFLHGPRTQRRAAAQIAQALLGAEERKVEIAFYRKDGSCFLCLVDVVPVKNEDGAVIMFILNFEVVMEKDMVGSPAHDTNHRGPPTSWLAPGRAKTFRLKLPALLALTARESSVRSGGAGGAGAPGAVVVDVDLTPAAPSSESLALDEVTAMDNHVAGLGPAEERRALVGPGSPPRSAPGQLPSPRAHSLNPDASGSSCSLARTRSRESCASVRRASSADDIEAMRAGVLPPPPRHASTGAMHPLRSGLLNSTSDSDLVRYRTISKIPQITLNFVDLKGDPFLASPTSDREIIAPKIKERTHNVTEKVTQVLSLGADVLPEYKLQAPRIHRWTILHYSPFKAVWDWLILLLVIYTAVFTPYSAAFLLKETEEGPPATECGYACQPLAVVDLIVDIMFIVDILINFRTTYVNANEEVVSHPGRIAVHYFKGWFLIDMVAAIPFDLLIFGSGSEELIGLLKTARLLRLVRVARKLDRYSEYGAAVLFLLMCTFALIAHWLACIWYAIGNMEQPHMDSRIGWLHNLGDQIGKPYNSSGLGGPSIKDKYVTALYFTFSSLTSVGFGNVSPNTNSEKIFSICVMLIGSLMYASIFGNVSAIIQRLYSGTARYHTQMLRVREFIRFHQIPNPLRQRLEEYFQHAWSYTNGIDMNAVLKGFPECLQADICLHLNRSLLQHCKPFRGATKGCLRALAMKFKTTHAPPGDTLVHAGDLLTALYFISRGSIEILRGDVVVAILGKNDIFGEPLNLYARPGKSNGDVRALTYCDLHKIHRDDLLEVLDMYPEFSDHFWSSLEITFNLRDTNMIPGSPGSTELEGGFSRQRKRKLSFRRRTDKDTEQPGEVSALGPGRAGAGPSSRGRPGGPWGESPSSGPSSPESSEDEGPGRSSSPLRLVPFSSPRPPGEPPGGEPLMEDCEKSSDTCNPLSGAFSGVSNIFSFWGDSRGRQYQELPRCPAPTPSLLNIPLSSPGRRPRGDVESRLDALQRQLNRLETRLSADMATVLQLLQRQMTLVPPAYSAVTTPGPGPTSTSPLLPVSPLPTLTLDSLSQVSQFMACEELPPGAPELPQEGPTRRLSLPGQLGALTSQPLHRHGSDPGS", "conditions": "human, plasma"}, "[1]": {"conditions": "plasma; cited from earlier work"}, "[2]": {"conditions": "rat plasma; cited from earlier work"}, "[3]": {"conditions": "mouse plasma; cited from earlier work"}, "[4]": {"conditions": "scaled; cited from earlier work"}, "[5]": {"conditions": "cited from earlier work"}, "[6]": {"conditions": "scaled; cited from earlier work", "remark": "listed apart in the source"}, "[7]": {"conditions": "cited from earlier work", "remark": "listed apart in the source"}, "[8]": {"conditions": "fed state simulated intestinal fluid, pH 5.8 (footnote c); cited from earlier work"}, "[9]": {"test_system": "P. falciparum Pf3D7_0087/N9 parasites", "conditions": "cited from earlier work"}, "[10]": {"assay": "kinetic aqueous solubility by nephelometry", "type": "physicochemical", "conditions": "pH 6.5, range following 30 min at room temperature"}, "[11]": {"assay": "plasma protein binding by ultracentrifugation, human plasma", "type": "in vitro ADME"}, "[12]": {"assay": "plasma protein binding by ultracentrifugation, rat plasma", "type": "in vitro ADME"}, "[13]": {"assay": "plasma protein binding by ultracentrifugation, mouse plasma", "type": "in vitro ADME", "conditions": "mouse plasma, ultracentrifugation"}, "[14]": {"assay": "in vitro metabolism, human liver microsomes", "type": "in vitro ADME"}, "[15]": {"assay": "in vitro metabolism, rat liver microsomes", "type": "in vitro ADME", "conditions": "from rat microsomal CLint using physiological scaling factors"}, "[16]": {"assay": "in vitro metabolism, mouse liver microsomes", "type": "in vitro ADME"}, "PvDHODH": {"biological_target": "T1, PvDHODH (Plasmodium vivax, UniProt A5K1N1)", "T1 sequence (A5K1N1 160-572)": "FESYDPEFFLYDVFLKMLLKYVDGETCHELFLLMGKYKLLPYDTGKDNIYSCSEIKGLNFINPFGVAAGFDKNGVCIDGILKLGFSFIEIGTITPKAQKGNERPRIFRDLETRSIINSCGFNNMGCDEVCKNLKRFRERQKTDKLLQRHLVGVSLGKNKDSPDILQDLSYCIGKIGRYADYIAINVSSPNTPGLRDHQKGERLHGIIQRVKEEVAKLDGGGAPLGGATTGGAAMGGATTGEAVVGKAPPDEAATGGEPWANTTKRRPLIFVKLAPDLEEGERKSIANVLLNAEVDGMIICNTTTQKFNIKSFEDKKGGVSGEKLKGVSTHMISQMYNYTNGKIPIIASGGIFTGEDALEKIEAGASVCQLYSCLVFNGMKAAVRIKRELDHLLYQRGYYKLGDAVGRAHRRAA", "conditions": "PvDHODH IC50 higher than PfDHODH IC50"}, "in vivo": {"assay": "in vivo", "conditions": "Sprague-Dawley, rat, plasma, iv"}, "dog DHODH": {"biological_target": "dog DHODH (Canis lupus familiaris, UniProt A0A8I3MWX2)", "sequence (A0A8I3MWX2 1-406)": "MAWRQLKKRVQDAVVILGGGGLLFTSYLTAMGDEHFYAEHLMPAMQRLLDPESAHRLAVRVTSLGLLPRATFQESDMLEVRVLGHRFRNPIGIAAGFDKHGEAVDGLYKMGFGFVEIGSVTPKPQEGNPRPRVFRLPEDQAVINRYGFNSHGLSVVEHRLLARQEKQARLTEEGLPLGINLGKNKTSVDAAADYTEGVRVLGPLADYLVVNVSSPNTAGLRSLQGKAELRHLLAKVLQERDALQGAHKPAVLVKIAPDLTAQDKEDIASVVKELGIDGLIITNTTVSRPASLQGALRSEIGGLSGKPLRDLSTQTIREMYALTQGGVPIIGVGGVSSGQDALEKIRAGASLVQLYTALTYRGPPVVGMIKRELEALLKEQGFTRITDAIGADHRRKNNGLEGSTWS", "assay": "biochemical"}, "[17]": {"conditions": "1 QD, converted to different units"}}, "note": "Like-named read-outs stand apart in the source and are kept apart here.", "data": [{"smiles": "Cc1cc(Nc2ccc(S(F)(F)(F)(F)F)cc2)n2nc(C(C)(F)F)nc2n1", "note": "[Compound 1, 2-(1,1-difluoroethyl)-5-methyl-N-[4-(pentafluoro-λ^6-sulfanyl)phenyl]-[1,2,4]triazolo[1,5-a]pyrimidin-7-amine]", "values": [{"measurement": "unbound plasma concentration at likely therapeutic doses lower than the IC50 for hERG channel inhibition", "setting": "hERG K+ channel", "value": "70–320 fold"}, {"measurement": "PPB human (% bound)", "setting": "[1]", "value": 99.9, "unit": "% bound"}, {"measurement": "PPB rat (% bound)", "setting": "[2]", "value": 97.7, "unit": "% bound"}, {"measurement": "PPB mouse (% bound)", "setting": "[3]", "value": 99.7, "unit": "% bound"}, {"measurement": "predicted in vivo CLint human", "setting": "[4]", "value": 3.5, "unit": "mL/min/kg"}, {"measurement": "in vitro CLint rat", "setting": "[5]; rat liver microsomes", "value": 1.8, "unit": "μL/min/mg protein"}, {"measurement": "predicted in vivo CLint rat", "setting": "[5]; rat, scaled", "value": 3.1, "unit": "mL/min/kg"}, {"measurement": "predicted in vivo CLint mouse", "setting": "[6]", "value": 7.2, "unit": "mL/min/kg"}, {"measurement": "apparent T1/2", "setting": "[7]; rat IV […], […]", "value": 13, "unit": "h"}, {"measurement": "oral BA", "setting": "[7]; rat", "value": 57, "unit": "%"}, {"measurement": "solubility FeSSIF pH 5.8", "setting": "[8]", "value": "27.6 ^c μg/mL"}, {"measurement": "ED90", "setting": "[9]; 1, QD dosing", "value": 8.1, "unit": "mg/kg"}, {"measurement": "AUCED90", "setting": "[9]; [17]", "value": 45.7, "unit": "μM·h/day"}, {"measurement": "ED90", "setting": "[9]; [17]", "value": 8.1, "unit": "mg/kg/day"}]}, {"smiles": "Cc1cc(NC2CCc3cc(Br)ccc3C2)n2nc(C(C)(F)F)nc2n1", "note": "(centres unmarked) [Compound 11, 2-(1,1-Difluoroethyl)-N-(6-bromo-1,2,3,4-tetrahydronaphthalen-2-yl)-5-methyl-[1,2,4]triazolo[1,5-a]pyrimidin-7-amine]", "values": [{"measurement": "kinetic solubility pH 6.5", "setting": "[10]", "value": "3.1–6.3 μg/mL"}, {"measurement": "PPB human (% bound)", "setting": "[11]", "value": 99.0, "unit": "% bound"}, {"measurement": "PPB rat (% bound)", "setting": "[12]", "value": 99.7, "unit": "% bound"}, {"measurement": "PPB mouse (% bound)", "setting": "[13]", "value": 99.2, "unit": "% bound"}, {"measurement": "predicted in vivo CLint human", "setting": "[14]; from human microsomal CLint using physiological scaling factors", "value": "< 5.8", "unit": "mL/min/kg"}, {"measurement": "in vitro CLint human", "setting": "[14]; human liver microsomes", "value": "< 7", "unit": "μL/min/mg protein"}, {"measurement": "predicted in vivo CLint rat", "setting": "[15]", "value": 19, "unit": "mL/min/kg"}, {"measurement": "predicted in vivo CLint mouse", "setting": "[16]; from mouse microsomal CLint using physiological scaling factors", "value": 67, "unit": "mL/min/kg"}, {"measurement": "in vitro CLint mouse", "setting": "[16]; mouse liver microsomes", "value": 26, "unit": "μL/min/mg protein"}, {"measurement": "difference of IC50 P. vivax DHODH versus PfDHODH", "setting": "PvDHODH", "value": "5–8 fold"}, {"measurement": "clearance", "setting": "in vivo", "value": 2.8, "unit": "mL/min/kg"}, {"measurement": "IC50", "setting": "dog DHODH", "value": "> 100", "unit": "µM"}]}]}
